# Results as given in PubChem BioAssay (NCI).
#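 GI50 marks 50% less growth. TGI: total growth inhibition.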
# Assays:
# Experiment in all cases: growth of human tumour cells (NCI), 384-well format
# UACC-62 melanoma = system: UACC-62 melanoma
# M14 melanoma = system: M14 melanoma
# KM12 colon = system: KM12 colon
# SNB-19 CNS = system: SNB-19 CNS
# UACC-257 melanoma = system: UACC-257 melanoma
# MOLT-4 leukemia = system: MOLT-4 leukemia
# OVCAR-3 ovarian = system: OVCAR-3 ovarian
# NCI-H460 NSCLC = system: NCI-H460 NSCLC
# SW-620 colon = system: SW-620 colon
# NCI-H522 lung = system: NCI-H522 lung
# HOP-62 NSCLC = system: HOP-62 NSCLC
# A549 NSCLC = system: A549 NSCLC
# SK-OV-3 ovarian = system: SK-OV-3 ovarian
# MDA-MB-231 breast = system: MDA-MB-231 breast
# OVCAR-8 ovarian = system: OVCAR-8 ovarian
# UO-31 renal = system: UO-31 renal
# CCRF-CEM leukemia = system: CCRF-CEM leukemia
# NCI-H23 lung = system: NCI-H23 lung
# T-47D breast = system: T-47D breast
# OVCAR-4 ovarian = system: OVCAR-4 ovarian
# SK-MEL-28 melanoma = system: SK-MEL-28 melanoma
# SN12C renal = system: SN12C renal
# HCT-15 colon = system: HCT-15 colon
# COLO 205 colon = system: COLO 205 colon
# A498 renal = system: A498 renal
# EKVX NSCLC = system: EKVX NSCLC
# TK-10 renal = system: TK-10 renal
# MDA-MB-468 breast = system: MDA-MB-468 breast
# HL-60(TB) leukemia = system: HL-60(TB) leukemia
# SF-268 CNS = system: SF-268 CNS
# SF-539 CNS = system: SF-539 CNS
# NCI-H322M lung = system: NCI-H322M lung
# PC-3 prostate = system: PC-3 prostate
# K-562 leukemia = system: K-562 leukemia
# IGROV1 ovarian = system: IGROV1 ovarian
# CAKI-1 renal = system: CAKI-1 renal
# NCI/ADR-RES ovarian = system: NCI/ADR-RES ovarian
# ACHN renal = system: ACHN renal
# RPMI-8226 leukemia = system: RPMI-8226 leukemia
# SNB-75 CNS = system: SNB-75 CNS
# LOX IMVI melanoma = system: LOX IMVI melanoma
# SK-MEL-5 melanoma = system: SK-MEL-5 melanoma
# HT29 colon = system: HT29 colon
# SR leukemia = system: SR leukemia
# SF-295 CNS = system: SF-295 CNS
# NCI-H226 lung = system: NCI-H226 lung
# HCC-2998 colon = system: HCC-2998 colon
# U251 glioblastoma = system: U251 glioblastoma
# 786-0 renal = system: 786-0 renal
# HCT-116 colon = system: HCT-116 colon
# HOP-92 NSCLC = system: HOP-92 NSCLC
# BT-549 breast = system: BT-549 breast
# MALME-3M melanoma = system: MALME-3M melanoma
# MDA-MB-435 melanoma = system: MDA-MB-435 melanoma
# MCF7 breast = system: MCF7 breast
# HS 578T breast = system: HS 578T breast
# DU-145 prostate = system: DU-145 prostate
smiles,measurement,setting,value
C[C@@H]1COCCN1c1cc(C2([S@@](C)(=N)=O)CC2)nc(-c2ccnc3[nH]ccc23)n1,GI50,UACC-62 melanoma,4.45 µM
same,TGI,UACC-62 melanoma,64.9 µM
same,GI50,M14 melanoma,2.44 µM
same,TGI,M14 melanoma,9.06 µM
same,GI50,KM12 colon,1.8 µM
same,TGI,KM12 colon,27.1 µM
same,GI50,SNB-19 CNS,9.29 µM
same,TGI,SNB-19 CNS,> 100 µM
same,GI50,UACC-257 melanoma,41.3 µM
same,TGI,UACC-257 melanoma,> 100 µM
same,GI50,MOLT-4 leukemia,1.35 µM
same,TGI,MOLT-4 leukemia,2.68 µM
same,GI50,OVCAR-3 ovarian,4.62 µM
same,TGI,OVCAR-3 ovarian,> 100 µM
same,GI50,NCI-H460 NSCLC,1.38 µM
same,TGI,NCI-H460 NSCLC,10.5 µM
same,GI50,SW-620 colon,10.6 µM
same,TGI,SW-620 colon,> 100 µM
same,GI50,NCI-H522 lung,10.8 µM
same,TGI,NCI-H522 lung,> 100 µM
same,GI50,HOP-62 NSCLC,2.15 µM
same,TGI,HOP-62 NSCLC,9.45 µM
same,GI50,A549 NSCLC,3.93 µM
same,TGI,A549 NSCLC,36.5 µM
same,GI50,SK-OV-3 ovarian,3.29 µM
same,TGI,SK-OV-3 ovarian,41.8 µM
same,GI50,MDA-MB-231 breast,6.06 µM
same,TGI,MDA-MB-231 breast,> 100 µM
same,GI50,OVCAR-8 ovarian,7.62 µM
same,TGI,OVCAR-8 ovarian,32.2 µM
same,GI50,UO-31 renal,4.47 µM
same,TGI,UO-31 renal,> 100 µM
same,GI50,CCRF-CEM leukemia,0.902 µM
same,TGI,CCRF-CEM leukemia,2.26 µM
same,GI50,NCI-H23 lung,1.97 µM
same,TGI,NCI-H23 lung,5.21 µM
same,GI50,T-47D breast,14.7 µM
same,TGI,T-47D breast,> 100 µM
same,GI50,OVCAR-4 ovarian,5.37 µM
same,TGI,OVCAR-4 ovarian,75.1 µM
same,GI50,SK-MEL-28 melanoma,23.8 µM
same,TGI,SK-MEL-28 melanoma,> 100 µM
same,GI50,SN12C renal,4.3 µM
same,TGI,SN12C renal,50.1 µM
same,GI50,HCT-15 colon,4.48 µM
same,TGI,HCT-15 colon,> 100 µM
same,GI50,COLO 205 colon,9.01 µM
same,TGI,COLO 205 colon,62.6 µM
same,GI50,A498 renal,1.12 µM
same,TGI,A498 renal,3.92 µM
same,GI50,EKVX NSCLC,9.1 µM
same,TGI,EKVX NSCLC,69.1 µM
same,GI50,TK-10 renal,1.83 µM
same,TGI,TK-10 renal,6.26 µM
same,GI50,MDA-MB-468 breast,5.01 µM
same,TGI,MDA-MB-468 breast,27.3 µM
same,GI50,HL-60(TB) leukemia,1.98 µM
same,TGI,HL-60(TB) leukemia,3.68 µM
same,GI50,SF-268 CNS,5.75 µM
same,TGI,SF-268 CNS,95.7 µM
same,GI50,SF-539 CNS,2.16 µM
same,TGI,SF-539 CNS,6.4 µM
same,GI50,NCI-H322M lung,1.78 µM
same,TGI,NCI-H322M lung,7.77 µM
same,GI50,PC-3 prostate,7.65 µM
same,TGI,PC-3 prostate,> 100 µM
same,GI50,K-562 leukemia,3.3 µM
same,TGI,K-562 leukemia,12 µM
same,GI50,IGROV1 ovarian,3.47 µM
same,TGI,IGROV1 ovarian,32.9 µM
same,GI50,CAKI-1 renal,3.87 µM
same,TGI,CAKI-1 renal,29.6 µM
same,GI50,NCI/ADR-RES ovarian,61.8 µM
same,TGI,NCI/ADR-RES ovarian,> 100 µM
same,GI50,ACHN renal,2.03 µM
same,TGI,ACHN renal,17.5 µM
same,GI50,RPMI-8226 leukemia,1.82 µM
same,TGI,RPMI-8226 leukemia,4.28 µM
same,GI50,SNB-75 CNS,3.9 µM
same,TGI,SNB-75 CNS,51.8 µM
same,GI50,LOX IMVI melanoma,3.43 µM
same,TGI,LOX IMVI melanoma,14 µM
same,GI50,SK-MEL-5 melanoma,7.66 µM
same,TGI,SK-MEL-5 melanoma,25 µM
same,GI50,HT29 colon,4.65 µM
same,TGI,HT29 colon,26.9 µM
same,GI50,SR leukemia,0.0145 µM
same,TGI,SR leukemia,0.244 µM
same,GI50,SF-295 CNS,2.68 µM
same,TGI,SF-295 CNS,13.7 µM
same,GI50,NCI-H226 lung,16.1 µM
same,TGI,NCI-H226 lung,77 µM
same,GI50,HCC-2998 colon,1.1 µM
same,TGI,HCC-2998 colon,5.38 µM
same,GI50,U251 glioblastoma,5.72 µM
same,TGI,U251 glioblastoma,> 100 µM
same,GI50,786-0 renal,2.32 µM
same,TGI,786-0 renal,12.1 µM
same,GI50,HCT-116 colon,3.27 µM
same,TGI,HCT-116 colon,56.5 µM
same,GI50,HOP-92 NSCLC,3.02 µM
same,TGI,HOP-92 NSCLC,13.1 µM
same,GI50,BT-549 breast,1.98 µM
same,TGI,BT-549 breast,7.43 µM
same,GI50,MALME-3M melanoma,3.72 µM
same,TGI,MALME-3M melanoma,23.6 µM
same,GI50,MDA-MB-435 melanoma,7.48 µM
same,TGI,MDA-MB-435 melanoma,> 100 µM
same,GI50,MCF7 breast,1.27 µM
same,TGI,MCF7 breast,> 100 µM
same,GI50,HS 578T breast,1.22 µM
same,TGI,HS 578T breast,3.37 µM
same,GI50,DU-145 prostate,3.82 µM
same,TGI,DU-145 prostate,> 100 µM
